Entries after “also recorded” stand apart in the source; their conditions may differ. Each block holds one substance with its values, some of them ahead of it. Where no end group is shown, it is not given here. [ ]: non-standard residue; d: D form.
Key:
[1] = target: T1, amyloid beta oligomers (Aß1-42) (Homo sapiens, UniProt P05067); test: SPR binding kinetics, amyloid beta oligomer
T1 construct: 1 mg lyophilized Aß1-42 and N-terminal biotinylated Aß1-42; biotin (only on part of the peptide molecules)
Experimental: (§1) 1 mg lyophilized Aß1-42 and N-terminal biotinylated Aß1-42 were each dissolved in 1 ml 100% hexafluoroisopropanol (HFIP) and dissolved overnight at room temperature. For the oligomer and fibril preparation, non-biotinylated Aß was used with N-terminal biotinylated Aß at a ratio of 1:10 and the HFIP was evaporated (Concentrator 5301 from Eppendorf). The resultant Aß film, at a final concentration of 80 μM, was placed in sodium phosphate buffer (10 mM, pH 7.4) and incubated (RT, 600 rpm). The incubation time was 3 h for the oligomer preparation, and 24 h for the fibril preparation. 100% N-terminal biotinylated Aß1-42 without incubation was used for the preparation of monomers.
(§2) The density gradient centrifugation was carried out subsequent to the Aß preparation to purify the respective Aß species according to the size of the same. An iodixanol gradient in 10 mM sodium phosphate buffer, pH 7.4 with rising concentrations from 50% to 5% v/v iodixanol was used for this purpose. 100 μl of the Aß sample was applied and separated by way of ultracentrifugation (3 h, 4° C., 259000 g). Subsequently, the gradient was fractionated into 14 fractions, 140 μl each. Monomeric Aß are present in the first two top fractions, Aß oligomers in fractions 4 to 6, and Aß fibrils in fractions 1 to 13.
Immobilization for Surface Plasmon Resonance (SPR) Spectroscopy A T200 from Biacore (GE Healthcare) was used for SPR spectroscopy. The Aß species purified by way of density gradient centrifugation were directly immobilized on a sensor chip (Series S Sensor Chips SA) according to the manufacturer's instructions by way of biotin-streptavidin coupling. 1×PBS was used as the running buffer. Loading took place at 25° C. and a flow rate of 5 μl/min. […]
(§3) Binding kinetics were likewise measured by way of SPR spectroscopy using a T200 device from Biacore (GE Healthcare). […] The binding curves were evaluated by way of kinetic fit models (heterogeneous binding model) using the Biacore T200 evaluation software (version 2.0). […]

[2] = test system: TgSwDI mouse model; test: Object recognition test (ORT); assay type: in vivo; settings: TgSwDI mice
Experimental: FIG. 1: Here, the result of the so-called “object recognition test” (ORT) is shown. Animals treated with D3D3 (amidated) (details in Table 2) and animals treated with placebo were placed individually and separately from each other in a box in which two objects were located. After the animals had time to explore both objects, the animals were removed from the box again and not placed back in there until 24 hours later. Before that, however, one object was replaced with a new object different therefrom. Animals having memory now preferably explore the new object. Animals having no memory of having stayed in the box 24 hours earlier spend the same amount of time exploring the old object and the new object. The time that the animal spends with the old object (white bars) and the new object (black bars) is measured in seconds. It is clearly apparent that the animals treated with the placebo spend the same amount of time with the new and the old objects. […] Thus, only the animals treated with D3D3 show a functioning memory in the test.
FIG. 5: Here, the result of the so-called “object recognition test” (ORT) is shown. Animals treated with RD2D3 (amidated) (details in Table 2) and animals treated with placebo were placed individually and separately from each other in a box in which two objects were located. After the animals had time to explore both objects, the animals were removed from the box again and not placed back in there until 24 hours later. Before that, however, one object was replaced with a new object different therefrom. Animals having memory now preferably explore the new object. Animals having no memory of having stayed in the box 24 hours earlier spend the same amount of time exploring the old object and the new object. The time that the animal spends with the old object (black bars) and the new object (white bars) is measured in seconds. It is clearly apparent that the animals treated with the placebo spent the same amount of time with the new and the old objects.

[3] = test system: TgSwDI mouse model; test: Morris water maze; assay type: in vivo; settings: TgSwDI mice, 7 mg/4 weeks i.p. (micropump), day 5, FIG. 4; listed as RD2D3 (amidated)
Experimental: FIG. 4: The so-called “Morris water maze” is used to measure the spatial memory of animals. The time is measured in seconds that the animal requires to locate a platform hidden closely beneath the water surface in a water tank. This is measured in several experiments per day on several consecutive days. […] The search time is plotted in seconds on five consecutive days. The learning of animals treated with RD2D3 (amidated) was significant.

[4] = target: T2, amyloid beta fibrils (Aß1-42) (Homo sapiens, UniProt P05067); test: SPR binding kinetics, amyloid beta fibrils; settings: heterogeneous binding model, FIG. 8
T2 construct: 1 mg lyophilized Aß1-42 and N-terminal biotinylated Aß1-42; biotin (only on part of the peptide molecules)
Experimental: as §1
as §2, with “Subsequently, the gradient was fractionated into 14 fractions, 140 μl each. Monomeric Aß are present in the first two top fractions, Aß oligomers in fractions 4 to 6, and Aß fibrils in fractions 1 to 13.” left out
as §3

[5] = test system: TBA 2.1 mice; test: SHIRPA test; assay type: in vivo, mouse; settings: 0.1 mg/day i.p. for 4 weeks (micropump), before vs after treatment, FIG. 3, listed as D3D3 (amidated)
Experimental: FIG. 3: The SHIRPA test is a test where a number of characteristics, including reflexes, are tested. Each characteristic is assessed separately from the others, and points are awarded in each case. The higher the number of points, the more progressed the phenotype, which is to say the neurological damage, is. The SHIRPA test was measured prior to (black bars) and after (white bards) the treatment (treatment details are provided in Table 2). […] D3D3 thus acts more efficiently than D3.

[6] = test system: TBA 2.1 mice; test: Rotarod test; assay type: in vivo, mouse; settings: 0.1 mg/day i.p. for 4 weeks (micropump), before vs after treatment
Source text: FIG. 2: The so-called “rotarod” test is used to measure how long an animal is able to balance on a rotating rod before falling off. This allows the animal's neuromotor performance to be measured. The longer the animal is able to balance, the less strongly the motor neurons are affected by the phenotype of neurodegeneration. The difference between before and after treatment is plotted in seconds. […] As expected, the degeneration has thus progressed. […] Thus, the treatment slowed, or even stopped, the neurodegeneration in both instances.

T1 sequence (P05067 672-713): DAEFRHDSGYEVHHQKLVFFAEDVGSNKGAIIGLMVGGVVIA
T2 sequence (P05067 672-713): as above

Substance: rprtrlhthrnr ([dR][dP][dR][dT][dR][dL][dH][dT][dH][dR][dN][dR]) [linear D3, known D-enantiomeric peptide D3, linear, unmodified C-terminal carboxyl group, reference compound]
Binding strength (KD, kinetics) to amyloid beta oligomer ([1]; heterogeneous binding model, FIG. 7): binds only a low-affinity site, but not a high-affinity site

Substance: RD2D3 amidated: dimer RD2D3 (SEQ ID NO: 4), amidated at position 24 at the free C-terminus ([dP][dT][dL][dH][dT][dH][dN][dR][dR][dR][dR][dR][dR][dP][dR][dT][dR][dL][dH][dT][dH][dR][dN][dR]-NH2; N-terminus assumed; SMILES CC(C)C[C@@H](NC(=O)[C@@H](CCCNC(=N)N)NC(=O)[C@H](NC(=O)[C@@H](CCCNC(=N)N)NC(=O)[C@H]1CCCN1C(=O)[C@@H](CCCNC(=N)N)NC(=O)[C@@H](CCCNC(=N)N)NC(=O)[C@@H](CCCNC(=N)N)NC(=O)[C@@H](CCCNC(=N)N)NC(=O)[C@@H](CCCNC(=N)N)NC(=O)[C@@H](CCCNC(=N)N)NC(=O)[C@@H](CC(N)=O)NC(=O)[C@@H](Cc1c[nH]cn1)NC(=O)[C@H](NC(=O)[C@@H](Cc1c[nH]cn1)NC(=O)[C@@H](CC(C)C)NC(=O)[C@H](NC(=O)[C@H]1CCCN1)[C@H](C)O)[C@H](C)O)[C@H](C)O)C(=O)N[C@H](Cc1c[nH]cn1)C(=O)N[C@@H](C(=O)N[C@H](Cc1c[nH]cn1)C(=O)N[C@H](CCCNC(=N)N)C(=O)N[C@H](CC(N)=O)C(=O)N[C@H](CCCNC(=N)N)C(N)=O)[C@H](C)O)
Object recognition ([2]; 7 mg/4 weeks i.p. (micropump), FIG. 5): significant
Object recognition ([2]; 7 mg/4 weeks i.p. (micropump), FIG. 5, listed as RD2D3 (amidated)): spend much more time with the new object; also recorded: able to improve the cognition of SweDI mice
Water maze [3]: able to improve the cognition of SweDI mice

Binding strength (KD, kinetics) to amyloid beta fibrils [4]: sub-pM binding range
Substance: RKRTRLHTHRNR [cD3(P2K)]

Rmax, contribution of KD2 (high-affinity site) to RU total loading ([1]; oligomers, FIG. 7, high-affinity site): 21%
Rmax, contribution of the low-affinity site to RU total loading ([1]; oligomers, FIG. 7, low-affinity site (white bar)): 79%
Substance: cD3z: cD3 zero, cyclized D3 without any further amino acid attachments (cyclo([dR][dP][dR][dT][dR][dL][dH][dT][dH][dR][dN][dR]); SMILES CC(C)C[C@H]1NC(=O)[C@@H](CCCNC(=N)N)NC(=O)[C@@H]([C@H](C)O)NC(=O)[C@@H](CCCNC(=N)N)NC(=O)[C@H]2CCCN2C(=O)[C@@H](CCCNC(=N)N)NC(=O)[C@@H](CCCNC(=N)N)NC(=O)[C@@H](CC(N)=O)NC(=O)[C@@H](CCCNC(=N)N)NC(=O)[C@@H](Cc2c[nH]cn2)NC(=O)[C@@H]([C@H](C)O)NC(=O)[C@@H](Cc2c[nH]cn2)NC1=O)

Substance: D3D3 amidated: dimer D3D3 (SEQ ID NO: 6), amidated at position 24 at the free C-terminus ([dR][dP][dR][dT][dR][dL][dH][dT][dH][dR][dN][dR][dR][dP][dR][dT][dR][dL][dH][dT][dH][dR][dN][dR]-NH2; N-terminus assumed; SMILES CC(C)C[C@@H](NC(=O)[C@@H](CCCNC(=N)N)NC(=O)[C@H](NC(=O)[C@@H](CCCNC(=N)N)NC(=O)[C@H]1CCCN1C(=O)[C@H](N)CCCNC(=N)N)[C@H](C)O)C(=O)N[C@H](Cc1c[nH]cn1)C(=O)N[C@@H](C(=O)N[C@H](Cc1c[nH]cn1)C(=O)N[C@H](CCCNC(=N)N)C(=O)N[C@H](CC(N)=O)C(=O)N[C@H](CCCNC(=N)N)C(=O)N[C@H](CCCNC(=N)N)C(=O)N1CCC[C@@H]1C(=O)N[C@H](CCCNC(=N)N)C(=O)N[C@@H](C(=O)N[C@H](CCCNC(=N)N)C(=O)N[C@H](CC(C)C)C(=O)N[C@H](Cc1c[nH]cn1)C(=O)N[C@@H](C(=O)N[C@H](Cc1c[nH]cn1)C(=O)N[C@H](CCCNC(=N)N)C(=O)N[C@H](CC(N)=O)C(=O)N[C@H](CCCNC(=N)N)C(N)=O)[C@H](C)O)[C@H](C)O)[C@H](C)O)
Object recognition ([2]; 1 mg/4 weeks i.p. (micropump), FIG. 1): significant
Object recognition ([2]; 1 mg/4 weeks i.p. (micropump), FIG. 1, listed as D3D3): considerably improves cognition
Object recognition ([2]; 1 mg/4 weeks i.p. (micropump), FIG. 1, listed as D3D3 (amidated)): spend much more time with the new object
SHIRPA [5]: showed no significant worsening of the SHIRPA value; also recorded: acts more efficiently than the simple peptide D3 (amidated)
Rotarod ([6]; FIG. 2, listed as D3D3): able to stop the progression of the phenotype
Rotarod ([6]; FIG. 2, listed as D3D3 (amidated)): exhibited no worsening of the neuromotor symptoms

Reference: patent publication US11274125B2, “Amyloid-beta-binding peptides and the use thereof for the treatment and diagnosis of Alzheimer's disease” (FORSCHUNGSZENTRUM JUELICH GMBH, priority 2013, dated 2022)
